Drawing on patent US8653087B2, “Pyrido [5, 4-D] pyrimidines as cell proliferation inhibitors” (Boehringer Ingelheim International GmbH, priority 2008, dated 2014), this text covers IC50 for 65 compounds.

The test addresses B-Raf (V600E)-kinase (Homo sapiens (Human), UniProt P15056, V600E). As to the kind of experiment: Kinase test B-RAF (V600E). The test is classed as biochemical. As to conditions: B-RAF (V600E) kinase test, 250 μM ATP. Summed up: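 B-Raf (V600E) (0.5 ng) preincubated with compound 24 h at RT (5% DMSO), then reacted 60 min at RT with 250 μM ATP and biotinylated MEK1 as substrate. Phospho-MEK (Ser217/221) captured on streptavidin and detected by europium time-resolved fluorescence; IC50 from dose-response curves.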

Broadly, the IC50 is the point on the concentration scale where inhibition reaches its midpoint. A low value points to inhibition by little substance.

The structures appear in SMILES notation.

B-Raf (V600E)-kinase, sequence (P15056 whole entry V600E): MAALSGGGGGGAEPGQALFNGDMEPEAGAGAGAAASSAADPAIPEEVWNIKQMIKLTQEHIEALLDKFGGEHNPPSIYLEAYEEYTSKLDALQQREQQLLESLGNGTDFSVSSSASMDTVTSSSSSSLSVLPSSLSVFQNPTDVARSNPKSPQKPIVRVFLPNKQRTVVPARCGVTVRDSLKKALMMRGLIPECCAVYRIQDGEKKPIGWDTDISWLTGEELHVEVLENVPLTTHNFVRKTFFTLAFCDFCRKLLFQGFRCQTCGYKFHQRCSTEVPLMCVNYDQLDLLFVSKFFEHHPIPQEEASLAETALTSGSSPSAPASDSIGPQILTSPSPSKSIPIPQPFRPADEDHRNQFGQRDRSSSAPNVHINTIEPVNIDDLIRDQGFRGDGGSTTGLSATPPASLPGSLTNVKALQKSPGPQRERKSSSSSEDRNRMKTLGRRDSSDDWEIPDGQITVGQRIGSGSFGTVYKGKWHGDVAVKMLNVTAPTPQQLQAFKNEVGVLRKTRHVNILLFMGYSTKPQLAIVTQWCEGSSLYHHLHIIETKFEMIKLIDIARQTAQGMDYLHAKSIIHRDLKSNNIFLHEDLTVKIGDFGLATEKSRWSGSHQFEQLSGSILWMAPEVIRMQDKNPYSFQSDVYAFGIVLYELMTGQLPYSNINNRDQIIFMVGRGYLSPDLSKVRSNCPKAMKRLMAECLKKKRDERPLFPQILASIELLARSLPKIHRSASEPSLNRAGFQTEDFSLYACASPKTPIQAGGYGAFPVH

For `COCCN(C)c1ncc2ncnc(Nc3cc(C(=O)Nc4cc(C(C)(C)C)on4)ccc3F)c2n1` [III-84], the midpoint of inhibition, the IC50, lay at 2 nM.

In turn, `CC(C)(C)c1cc(NC(=O)c2ccc(F)c(Nc3ncnc4cnc(N5CCCCCC5)nc34)c2)no1` [III-85] gave a concentration for half-maximal inhibition (IC50) of 7 nM.

As for `CN1CCCN(c2ncc3ncnc(Nc4cc(C(=O)Nc5cc(C(C)(C)C)on5)ccc4F)c3n2)CC1` [III-86], the half-maximal inhibitory concentration (IC50) is < 1 nM.

Compound `COc1ccc(C(=O)Nc2cc(C(C)(C)C)on2)cc1Nc1ncnc2cnc(N3CCCCCC3)nc12` [III-87] gave a 50% inhibitory concentration (IC50) of 3 nM.

For the compound `CC(C)(C)c1cc(NC(=O)c2ccc(F)c(Nc3ncnc4cnc(N5CCCCC5)nc34)c2)no1` [III-88], half-maximal inhibition (IC50) was put at 5 nM.

In turn, `CC(C)(C)c1cc(NC(=O)c2ccc(F)c(Nc3ncnc4cnc(N5CCOCC5)nc34)c2)no1` [III-89] yielded an IC50 of 4 nM.

`CC(C)(C)c1cc(NC(=O)c2ccc(F)c(Nc3ncnc4cnc(N5CCCC5)nc34)c2)no1` [III-90] showed a half-maximal inhibitory concentration (IC50) of 5 nM.

With `CN(C)CCNc1ncc2ncnc(Nc3cc(C(=O)Nc4cc(C(C)(C)C)on4)ccc3F)c2n1` [III-91], half-maximal inhibition (IC50) was put at 1 nM.

`CC(C)(C)c1cc(NC(=O)c2ccc(F)c(Nc3ncnc4cnc(NCCN5CCOCC5)nc34)c2)no1` [III-92] had an IC50 of 1 nM.

With `CN(C)c1ncc2ncnc(Nc3cc(C(=O)Nc4cc(C(C)(C)C)on4)ccc3F)c2n1` [III-93], the midpoint of inhibition, the IC50, lay at 1 nM.

On to `CNc1ncc2ncnc(Nc3cc(C(=O)Nc4cc(C(C)(C)C)on4)ccc3F)c2n1` [III-94], for which the half-maximal inhibitory concentration (IC50) turned out to be 6 nM.

`COc1ccc(C(=O)Nc2cc(C(C)(C)C)on2)cc1Nc1ncnc2cnc(N3CCN(C)CC3)nc12` [III-95]: the IC50 came to 2 nM.

As for `COc1ccc(C(=O)Nc2cc(C(C)(C)C)on2)cc1Nc1ncnc2cnc(N3CCCN(C)CC3)nc12` [III-96], the half-maximal inhibitory concentration (IC50) amounted to 2 nM.

`COc1ccc(C(=O)Nc2cc(C(C)(C)C)on2)cc1Nc1ncnc2cnc(N(C)CCN3CCCC3)nc12` [III-97] returned an IC50 of 4 nM.

`COCCN(C)c1ncc2ncnc(Nc3cc(C(=O)Nc4cc(CN5CCCC5)cc(C(F)(F)F)c4)ccc3C)c2n1` [III-98] displayed a half-maximal inhibitory concentration (IC50) of 2 nM.

Regarding `Cc1ccc(C(=O)Nc2cc(CN3CCCC3)cc(C(F)(F)F)c2)cc1Nc1ncnc2cnc(N3CCSCC3)nc12` [III-99], half-maximal inhibition (IC50) was put at 5 nM.

In the case of `Cc1ccc(C(=O)Nc2cc(CN3CCCC3)cc(C(F)(F)F)c2)cc1Nc1ncnc2cnc(N3CCC3)nc12` [III-100], the half-inhibitory concentration (IC50) came out at 4 nM.

Regarding `Cc1ccc(C(=O)Nc2cc(CN3CCCC3)cc(C(F)(F)F)c2)cc1Nc1ncnc2cnc(NCCF)nc12` [III-101], it took 1 nM to reach half-maximal inhibition (IC50).

`Cc1ccc(C(=O)Nc2cc(CN3CCCC3)cc(C(F)(F)F)c2)cc1Nc1ncnc2cnc(N3CCC(F)(F)CC3)nc12` [III-102] showed an IC50 of 4 nM.

Turning to `Cc1ccc(C(=O)Nc2cc(CN3CCCC3)cc(C(F)(F)F)c2)cc1Nc1ncnc2cnc(N3CCC(F)CC3)nc12` [III-103], it took 2 nM to reach half-maximal inhibition (IC50).

Regarding `Cc1ccc(C(=O)Nc2cc(CN3CCCC3)cc(C(F)(F)F)c2)cc1Nc1ncnc2cnc(NCC3CCOC3)nc12` (centres unmarked) [III-104], half-maximal inhibition (IC50) was put at 1 nM.

Turning to `Cc1ccc(C(=O)Nc2cc(CN3CCCC3)cc(C(F)(F)F)c2)cc1Nc1ncnc2cnc(NCc3ccccc3)nc12` [III-105], half-maximal inhibition (IC50) was put at 3 nM.

For `Cc1ccc(C(=O)Nc2cc(CN3CCCC3)cc(C(F)(F)F)c2)cc1Nc1ncnc2cnc(N3CCCCC3)nc12` [III-106], half-maximal inhibition (IC50) was put at 2 nM.

As for `Cc1ccc(C(=O)Nc2cc(CN3CCCC3)cc(C(F)(F)F)c2)cc1Nc1ncnc2cnc(N3CCOCC3)nc12` [III-108], the half-inhibitory concentration (IC50) is < 1 nM.

Turning to `Cc1ccc(C(=O)Nc2cc(CN3CCCC3)cc(C(F)(F)F)c2)cc1Nc1ncnc2cnc(N3CCCC3)nc12` [III-109], the 50% inhibitory concentration (IC50) amounted to 2 nM.

In turn, `COCCNc1ncc2ncnc(Nc3cc(C(=O)Nc4cc(CN5CCCC5)cc(C(F)(F)F)c4)ccc3C)c2n1` [III-110] came in with an IC50 of 1 nM.

Regarding `Cc1ccc(C(=O)Nc2cc(CN3CCCC3)cc(C(F)(F)F)c2)cc1Nc1ncnc2cnc(NC3CC3)nc12` [III-111], the IC50 is < 1 nM.

In turn, `Cc1ccc(C(=O)Nc2cc(CN3CCCC3)cc(C(F)(F)F)c2)cc1Nc1ncnc2cnc(NCC(C)C)nc12` [III-112] displayed an IC50 of 2 nM.

`Cc1ccc(C(=O)Nc2cc(CN3CCCC3)cc(C(F)(F)F)c2)cc1Nc1ncnc2cnc(NCc3ccncc3)nc12` [III-114] gave an IC50 of 2 nM.

In turn, `Cc1ccc(C(=O)Nc2cc(CN3CCCC3)cc(C(F)(F)F)c2)cc1Nc1ncnc2cnc(N(C)C)nc12` [III-115] registered a half-inhibitory concentration (IC50) of 2 nM.

In the case of `CNc1ncc2ncnc(Nc3cc(C(=O)Nc4cc(CN5CCCC5)cc(C(F)(F)F)c4)ccc3C)c2n1` [III-116], the IC50 was < 1 nM.

Consider `CCN(CC)c1ncc2ncnc(Nc3cc(C(=O)Nc4cc(CN5CCCC5)cc(C(F)(F)F)c4)ccc3C)c2n1` [III-117], for which it took 2 nM to reach half-maximal inhibition (IC50).

Take `Cc1ccc(C(=O)Nc2cc(CN3CCCC3)cc(C(F)(F)F)c2)cc1Nc1ncnc2cnc(NCCc3ccccc3)nc12` [III-118]: the IC50 came out at 2 nM.

`Cc1ccc(C(=O)Nc2ccc(N(C)CCN(C)C)c(C(F)(F)F)c2)cc1Nc1ncnc2cnc(NCc3cccnc3)nc12` [III-129] came in with a half-inhibitory concentration (IC50) of 2 nM.

The compound `Cc1ccc(C(=O)Nc2ccc(N(C)CCN(C)C)c(C(F)(F)F)c2)cc1Nc1ncnc2cnc(N3CCOCC3)nc12` [III-130] showed an IC50 of 3 nM.

With `Cc1ccc(C(=O)Nc2ccc(N(C)CCN(C)C)c(C(F)(F)F)c2)cc1Nc1ncnc2cnc(NCc3ccccn3)nc12` [III-135], it took 4 nM to reach half-maximal inhibition (IC50).

Take `Cc1ccc(C(=O)Nc2ccc(N(C)CCN(C)C)c(C(F)(F)F)c2)cc1Nc1ncnc2cnc(NCc3ccncc3)nc12` [III-136]: it took 3 nM to reach half-maximal inhibition (IC50).

Turning to `COCCN(C)c1ncc2ncnc(Nc3cc(C(=O)Nc4cc(OCCN(C)C)cc(C(F)(F)F)c4)ccc3C)c2n1` [III-141], the IC50 was found to be 2 nM.

As to `Cc1ccc(C(=O)Nc2cc(OCCN(C)C)cc(C(F)(F)F)c2)cc1Nc1ncnc2cnc(N3CCSCC3)nc12` [III-142], the half-inhibitory concentration (IC50) came out at 3 nM.

`Cc1ccc(C(=O)Nc2cc(OCCN(C)C)cc(C(F)(F)F)c2)cc1Nc1ncnc2cnc(N3CCC3)nc12` [III-143] registered an IC50 of 2 nM.

Consider `Cc1ccc(C(=O)Nc2cc(OCCN(C)C)cc(C(F)(F)F)c2)cc1Nc1ncnc2cnc(NCCF)nc12` [III-144], for which the IC50 is < 1 nM.

Compound `Cc1ccc(C(=O)Nc2cc(OCCN(C)C)cc(C(F)(F)F)c2)cc1Nc1ncnc2cnc(N3CCC(F)CC3)nc12` [III-145] displayed a concentration for half-maximal inhibition (IC50) of 2 nM.

As for `Cc1ccc(C(=O)Nc2cc(OCCN(C)C)cc(C(F)(F)F)c2)cc1Nc1ncnc2cnc(NCC3CCOC3)nc12` (centres unmarked) [III-146], the IC50 was < 1 nM.

Compound `Cc1ccc(C(=O)Nc2cc(OCCN(C)C)cc(C(F)(F)F)c2)cc1Nc1ncnc2cnc(NCc3ccccc3)nc12` [III-147] displayed a half-inhibitory concentration (IC50) of 1 nM.

Regarding `Cc1ccc(C(=O)Nc2cc(OCCN(C)C)cc(C(F)(F)F)c2)cc1Nc1ncnc2cnc(N3CCOCC3)nc12` [III-149], the IC50 is < 1 nM.

`Cc1ccc(C(=O)Nc2cc(OCCN(C)C)cc(C(F)(F)F)c2)cc1Nc1ncnc2cnc(N3CCCC3)nc12` [III-150] returned an IC50 of 2 nM.

Turning to `COCCNc1ncc2ncnc(Nc3cc(C(=O)Nc4cc(OCCN(C)C)cc(C(F)(F)F)c4)ccc3C)c2n1` [III-151], inhibition was half-maximal at 1 nM (IC50).

Consider `Cc1ccc(C(=O)Nc2cc(OCCN(C)C)cc(C(F)(F)F)c2)cc1Nc1ncnc2cnc(NC3CC3)nc12` [III-152], for which the half-maximal inhibitory concentration (IC50) was < 1 nM.

With `Cc1ccc(C(=O)Nc2cc(OCCN(C)C)cc(C(F)(F)F)c2)cc1Nc1ncnc2cnc(NCC(C)C)nc12` [III-153], the IC50 is < 1 nM.

In turn, `Cc1ccc(C(=O)Nc2cc(OCCN(C)C)cc(C(F)(F)F)c2)cc1Nc1ncnc2cnc(N(C)C)nc12` [III-155] registered an IC50 of 2 nM.

In the case of `CNc1ncc2ncnc(Nc3cc(C(=O)Nc4cc(OCCN(C)C)cc(C(F)(F)F)c4)ccc3C)c2n1` [III-156], the IC50 is < 1 nM.

`CCN(CC)c1ncc2ncnc(Nc3cc(C(=O)Nc4cc(OCCN(C)C)cc(C(F)(F)F)c4)ccc3C)c2n1` [III-157]: half-maximal inhibition (IC50) was put at 3 nM.

For the compound `Cc1ccc(C(=O)Nc2cc(N(C)CCN(C)C)cc(C(F)(F)F)c2)cc1Nc1ncnc2cnc(NCc3cccnc3)nc12` [III-168], the IC50 is < 1 nM.

For the compound `Cc1ccc(C(=O)Nc2cc(N(C)CCN(C)C)cc(C(F)(F)F)c2)cc1Nc1ncnc2cnc(NCc3ccccn3)nc12` [III-172], inhibition was half-maximal at 2 nM (IC50).

`Cc1ccc(C(=O)Nc2cc(N(C)CCN(C)C)cc(C(F)(F)F)c2)cc1Nc1ncnc2cnc(NCc3ccncc3)nc12` [III-173] gave an IC50 of 1 nM.

Regarding `Cc1ccc(C(=O)NCC2CCOC2)cc1Nc1ncnc2cnc(N3CCCN(C)CC3)nc12` (centres unmarked) [III-179], the IC50 is > 7000 nM.

Compound `Cc1ccc(C(=O)Nc2cccc(C(C)(C)C#N)c2)cc1Nc1ncnc2cnc(N3CCCN(C)CC3)nc12` [III-180] yielded an IC50 of 3 nM.

The compound `COc1c(NC(=O)c2ccc(C)c(Nc3ncnc4cnc(N5CCCN(C)CC5)nc34)c2)cc(C(C)(C)C)cc1NS(C)(=O)=O` [III-181] came in with an IC50 of 17 nM.

Take `Cc1ccc(C(=O)NCc2cccc(C(F)(F)F)c2)cc1Nc1ncnc2cnc(N3CCCN(C)CC3)nc12` [III-182]: half-maximal inhibition (IC50) required 245 nM.

Consider `Cc1ccc(C(=O)NC2CCCCC2)cc1Nc1ncnc2cnc(N3CCCN(C)CC3)nc12` [III-183], for which the IC50 is > 15000 nM.

In turn, `Cc1ccc(C(=O)Nc2ccccc2)cc1Nc1ncnc2cnc(N3CCCN(C)CC3)nc12` [III-184] showed an IC50 of 2880 nM.

With `Cc1ccc(C(=O)NC2CC2)cc1Nc1ncnc2cnc(N3CCCN(C)CC3)nc12` [III-185], the IC50 was > 15000 nM.

The compound `Cc1ccc(C(=O)Nc2ccc3c(c2)C(C)(C)C(=O)N3CCN2CCCC2)cc1Nc1ncnc2cnc(N3CCN(C)CC3)nc12` [III-186] yielded a 50% inhibitory concentration (IC50) of 26 nM.

On to `Cc1ccc(C(=O)NCC2CCOC2)cc1Nc1ncnc2cnc(N3CCN(C)CC3)nc12` (centres unmarked) [III-187], for which the half-maximal inhibitory concentration (IC50) was > 2000 nM.

With `Cc1ccc(C(=O)NCc2cccc(C(F)(F)F)c2)cc1Nc1ncnc2cnc(N3CCN(C)CC3)nc12` [III-188], inhibition was half-maximal at 104 nM (IC50).
